In patent US12077503B2, “Substituted cyclic amides and their use as herbicides” (FMC CORPORATION, priority 2015, dated 2024):

Key:
Format in all cases: in vivo
[1] = system: ducksalad (Heteranthera limosa); experiment: Test B flooded paddy test; conditions: Flood, 0 to 100 scale where 0 is no effect and 100 is complete control, 13 to 15 d
Procedure, shortened: (§1)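 Flooding to 3 cm over soil accompanied treatment, which consisted of adding compound to the standing water around 2-leaf plants; depth was then maintained. Visual assessment versus controls followed at 13 to 15 d (scale 0–100, 0 meaning no effect).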

[2] = system: sedge, umbrella (small-flower umbrella sedge, Cyperus difformis); experiment: Test B flooded paddy test; conditions: Flood, 0 to 100 scale where 0 is no effect and 100 is complete control, 13 to 15 d
Procedure, shortened: as §1

rice (Oryra sativa) = experiment: Test B flooded paddy test; conditions: Flood, 0 to 100 scale where 0 is no effect and 100 is complete control, 13 to 15 d
Procedure, shortened: as §1

[3] = system: barnyardgrass (Echinochloa crus-galli); experiment: Test B flooded paddy test; conditions: Flood, 0 to 100 scale where 0 is no effect and 100 is complete control, 13 to 15 d
Procedure, shortened: as §1

[4] = system: ryegrass, Italian (Italian ryegrass, Lolium multiflorum); experiment: Test A preemergence; conditions: for Plant response rating, Ryegrass, Italian: 125 g ai/ha, preemergence, 0 to 100 scale (0 no effect, 100 complete control); for Ryegrass, Italian plant response rating (0 to 100 scale, 0 is no effect, 100 is complete control): Preemergence, 500 g ai/ha, visual injury approx. 10 d
Procedure, shortened: (§2)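 Preemergence directed soil spray on seeded pots, or postemergence application to plants 2–10 cm, one- to two-leaf. Solvent mixture non-phytotoxic, with surfactant. Scored ~10 d later, visually, 0–100 vs untreated.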

Kochia (Kochia scoparia) [5] = experiment: Test A preemergence; conditions: for Plant response rating, Kochia: 125 g ai/ha, preemergence, 0 to 100 scale (0 no effect, 100 complete control); for Kochia plant response rating (0 to 100 scale, 0 is no effect, 100 is complete control): Preemergence, 500 g ai/ha, visual injury approx. 10 d
Procedure, shortened: as §2

[6] = system: ragweed (common ragweed, Ambrosia elatior); experiment: Test A preemergence; conditions: for Plant response rating, Ragweed: 125 g ai/ha, preemergence, 0 to 100 scale (0 no effect, 100 complete control); for Ragweed plant response rating (0 to 100 scale, 0 is no effect, 100 is complete control): Preemergence, 500 g ai/ha, visual injury approx. 10 d
Procedure, shortened: as §2

[7] = system: giant foxtail (Setaria faberii); experiment: Test A preemergence; conditions: for Plant response rating, Foxtail, Giant: 125 g ai/ha, preemergence, 0 to 100 scale (0 no effect, 100 complete control); for Foxtail, Giant plant response rating (0 to 100 scale, 0 is no effect, 100 is complete control): Preemergence, 500 g ai/ha, visual injury approx. 10 d
Procedure, shortened: as §2

[8] = system: barnyardgrass (Echinochloa crus-galli); experiment: Test A preemergence; conditions: for Plant response rating, Barnyardgrass: 125 g ai/ha, preemergence, 0 to 100 scale (0 no effect, 100 complete control); for Barnyardgrass plant response rating (0 to 100 scale, 0 is no effect, 100 is complete control): Preemergence, 500 g ai/ha, visual injury approx. 10 d
Procedure, shortened: as §2

[9] = system: pigweed (Amaranthus retroflexus); experiment: Test A preemergence; conditions: for Plant response rating, Pigweed: 125 g ai/ha, preemergence, 0 to 100 scale (0 no effect, 100 complete control); for Pigweed plant response rating (0 to 100 scale, 0 is no effect, 100 is complete control): Preemergence, 500 g ai/ha, visual injury approx. 10 d
[10] = system: pigweed (Amaranthus retroflexus); experiment: Test C preemergence; conditions: scale 0 to 100, 0 no effect, 100 complete control
From the text: Seeds of plant species selected from blackgrass (Alopecurus myosuroides), ryegrass, Italian (Italian ryegrass, Lolium multiflorum), wheat (winter wheat, Triticum aestivum), Galium (catchweed bedstraw, Galium aparine), corn (Zea mays), crabgrass, large (large crabgrass, Digitaria sanguinalis), foxtail, giant (giant foxtail, Setaria faberii), johnsongrass (Sorghum halepense), lambsquarters (Chenopodium album), morningglory (Ipomoea coccinea), nutsedge, yellow (yellow nutsedge, Cyperus esculentus), pigweed (Amaranthus retroflexus), ragweed (common ragweed, Ambrosia elatior), soybean (Glycine max), barnyardgrass (Echinochloa crus-galli), oilseed rape (Brassica napus), waterhemp (common waterhemp, Amaranthus rudis) and velvetleaf (Abutilon theophrasti) were planted into a blend of loam soil and sand and treated preemergence with test chemicals formulated in a non-phytotoxic solvent mixture which included a surfactant.
At the same time, plants selected from these crop and weed species and also Kochia (Kochia scoparia), oat, wild (wild oat, Avena fatua), and chickweed (common chickweed, Stellaria media) were planted in pots containing Sunshine Redi-Earth® planting medium comprising spaghnum peat moss, vermiculite, starter nutrients and dolomitic limestone and treated with postemergence applications of test chemicals formulated in the same manner. Plants ranged in height from 2 to 18 cm (1- to 4-leaf stage) for postemergence treatments. Treated plants and controls were maintained in a greenhouse for 13 to 15 d, after which time all species were compared to controls and visually evaluated. Plant response ratings, summarized in Table C, are based on a scale of 0 to 100 where 0 is no effect and 100 is complete control. A dash (-) response means no test result.

[11] = system: blackgrass (Alopecurus myosuroides); experiment: Test A postemergence; conditions: postemergence; for Blackgrass plant response rating: 125 g ai/ha, visual injury rating on 0 to 100 scale (0 no effect, 100 complete control), approx. 10 d; for Plant response rating, Blackgrass: 500 g ai/ha, 0 to 100 scale, 0 no effect, 100 complete control
Procedure, shortened: as §2

[12] = system: wheat (Triticum aestivum); experiment: Test A postemergence; conditions: postemergence; for Wheat plant response rating: 125 g ai/ha, visual injury rating on 0 to 100 scale (0 no effect, 100 complete control), approx. 10 d; for Plant response rating, Wheat: 500 g ai/ha, 0 to 100 scale, 0 no effect, 100 complete control
Procedure, shortened: as §2

[13] = system: ryegrass, Italian (Italian ryegrass, Lolium multiflorum); experiment: Test A postemergence; conditions: postemergence; for Ryegrass, Italian plant response rating: 125 g ai/ha, visual injury rating on 0 to 100 scale (0 no effect, 100 complete control), approx. 10 d; for Plant response rating, Ryegrass, Italian: 500 g ai/ha, 0 to 100 scale, 0 no effect, 100 complete control
Procedure, shortened: as §2

Kochia (Kochia scoparia) [14] = experiment: Test A postemergence; conditions: postemergence; for Kochia plant response rating: 125 g ai/ha, visual injury rating on 0 to 100 scale (0 no effect, 100 complete control), approx. 10 d; for Plant response rating, Kochia: 500 g ai/ha, 0 to 100 scale, 0 no effect, 100 complete control
Procedure, shortened: as §2

corn (Zea mays) = experiment: Test A postemergence; conditions: postemergence; for Corn plant response rating: 125 g ai/ha, visual injury rating on 0 to 100 scale (0 no effect, 100 complete control), approx. 10 d; for Plant response rating, Corn: 500 g ai/ha, 0 to 100 scale, 0 no effect, 100 complete control
Procedure, shortened: as §2

[15] = system: ragweed (common ragweed, Ambrosia elatior); experiment: Test A postemergence; conditions: postemergence; for Ragweed plant response rating: 125 g ai/ha, visual injury rating on 0 to 100 scale (0 no effect, 100 complete control), approx. 10 d; for Plant response rating, Ragweed: 500 g ai/ha, 0 to 100 scale, 0 no effect, 100 complete control
Procedure, shortened: as §2

[16] = system: giant foxtail (Setaria faberii); experiment: Test A postemergence; conditions: postemergence; for Foxtail, Giant plant response rating: 125 g ai/ha, visual injury rating on 0 to 100 scale (0 no effect, 100 complete control), approx. 10 d; for Plant response rating, Foxtail, Giant: 500 g ai/ha, 0 to 100 scale, 0 no effect, 100 complete control
Procedure, shortened: as §2

[17] = system: Galium (catchweed bedstraw, Galium aparine); experiment: Test A postemergence; conditions: postemergence; for Galium plant response rating: 125 g ai/ha, visual injury rating on 0 to 100 scale (0 no effect, 100 complete control), approx. 10 d; for Plant response rating, Galium: 500 g ai/ha, 0 to 100 scale, 0 no effect, 100 complete control
Procedure, shortened: as §2

[18] = system: barnyardgrass (Echinochloa crus-galli); experiment: Test A postemergence; conditions: postemergence; for Barnyardgrass plant response rating: 125 g ai/ha, visual injury rating on 0 to 100 scale (0 no effect, 100 complete control), approx. 10 d; for Plant response rating, Barnyardgrass: 500 g ai/ha, 0 to 100 scale, 0 no effect, 100 complete control
Procedure, shortened: as §2

[19] = system: pigweed (Amaranthus retroflexus); experiment: Test A postemergence; conditions: postemergence; for Pigweed plant response rating: 125 g ai/ha, visual injury rating on 0 to 100 scale (0 no effect, 100 complete control), approx. 10 d; for Plant response rating, Pigweed: 500 g ai/ha, 0 to 100 scale, 0 no effect, 100 complete control
Procedure, shortened: as §2

Compound | Plant response rating, Ryegrass, Italian [4] | Ryegrass, Italian plant response rating (0 to 100 scale, 0 is no effect, 100 is complete control) [4] | Plant response rating, Kochia (Kochia (Kochia scoparia) [5]) | Kochia plant response rating (0 to 100 scale, 0 is no effect, 100 is complete control) (Kochia (Kochia scoparia) [5]) | Plant response rating, Ragweed [6] | Plant response rating, Foxtail, Giant [7] | Foxtail, Giant plant response rating (0 to 100 scale, 0 is no effect, 100 is complete control) [7] | Plant response rating, Barnyardgrass [8] | Barnyardgrass plant response rating (0 to 100 scale, 0 is no effect, 100 is complete control) [8] | Plant response rating, Pigweed [9] | Pigweed plant response rating (0 to 100 scale, 0 is no effect, 100 is complete control) [9] | Plant response rating, Pigweed ([10]; 31 g ai/ha) | Plant response rating, Pigweed ([10]; 62 g ai/ha) | Plant response rating, Pigweed ([10]; 125 g ai/ha) | Plant response rating, Pigweed ([10]; 250 g ai/ha) | Blackgrass plant response rating [11] | Plant response rating, Blackgrass [11] | Wheat plant response rating [12] | Plant response rating, Wheat [12] | Ryegrass, Italian plant response rating [13] | also measured
O=C1NCC(c2cccc(OC(F)F)c2)C1C(=O)Nc1ccc(F)cc1F (centres unmarked) [Compound 421] | 0 | 30 | 70 | 80 | 30 | 90 | 90 | 90 | 90 | 20 | 40 | 0 | 0 | 35 | 60 | 20 | 50 | 0 | 40 | 20 | Plant response rating, Ducksalad ([1]; 500 g ai/ha): 100; Plant response rating, Sedge, Umbrella ([2]; 500 g ai/ha): 0; Plant response rating, Rice (rice (Oryra sativa); 500 g ai/ha): 15; Plant response rating, Barnyardgrass ([3]; 500 g ai/ha): 75; Ragweed plant response rating (0 to 100 scale, 0 is no effect, 100 is complete control) [6]: 40; Plant response rating, Ryegrass, Italian [13]: 40; Kochia plant response rating (Kochia (Kochia scoparia) [14]): 0; Plant response rating, Kochia (Kochia (Kochia scoparia) [14]): 20; Corn plant response rating (corn (Zea mays)): 0; Plant response rating, Corn (corn (Zea mays)): 70; Ragweed plant response rating [15]: 20; Plant response rating, Ragweed [15]: 30; Foxtail, Giant plant response rating [16]: 80; Plant response rating, Foxtail, Giant [16]: 90; Galium plant response rating [17]: 50; Plant response rating, Galium [17]: 60; Barnyardgrass plant response rating [18]: 70; Plant response rating, Barnyardgrass [18]: 90; Pigweed plant response rating [19]: 0; Plant response rating, Pigweed [19]: 30
CN1CC(c2cccc(OC(F)(F)C(F)F)c2)C(C(=O)Nc2ccc(F)c(F)c2F)C1=O (centres unmarked) [Compound 429] | 70 | 80 | 70 | 80 | 50 | 90 | 100 | 90 | 90 | 80 | 80 | 75 | 85 | 90 | 100 | 50 | 70 | 50 | 60 | 60 | Plant response rating, Ducksalad ([1]; 250 g ai/ha): 100; Plant response rating, Sedge, Umbrella ([2]; 250 g ai/ha): 0; Plant response rating, Rice (rice (Oryra sativa); 250 g ai/ha): 15; Plant response rating, Barnyardgrass ([3]; 250 g ai/ha): 65; Plant response rating, Ryegrass, Italian [13]: 80; Kochia plant response rating (Kochia (Kochia scoparia) [14]): 60; Plant response rating, Kochia (Kochia (Kochia scoparia) [14]): 70; Corn plant response rating (corn (Zea mays)): 70; Plant response rating, Corn (corn (Zea mays)): 80; Ragweed plant response rating [15]: 30; Plant response rating, Ragweed [15]: 50; Foxtail, Giant plant response rating [16]: 90; Plant response rating, Foxtail, Giant [16]: 90; Galium plant response rating [17]: 70; Plant response rating, Galium [17]: 70; Barnyardgrass plant response rating [18]: 90; Plant response rating, Barnyardgrass [18]: 90; Pigweed plant response rating [19]: 70; Plant response rating, Pigweed [19]: 80
CN1CC(c2cccc(OC(F)(F)C(F)F)c2)C(C(=O)Nc2ccccc2C(F)(F)F)C1=O (centres unmarked) [Compound 431] | 70 | 70 | 30 | 70 | 40 | 90 | 100 | 90 | 90 | 70 | 90 | 40 | 60 | 75 | 85 | 60 | 60 | 40 | 60 | 60 | Plant response rating, Ducksalad ([1]; 250 g ai/ha): 100; Plant response rating, Sedge, Umbrella ([2]; 250 g ai/ha): 0; Plant response rating, Rice (rice (Oryra sativa); 250 g ai/ha): 25; Plant response rating, Barnyardgrass ([3]; 250 g ai/ha): 40; Ragweed plant response rating (0 to 100 scale, 0 is no effect, 100 is complete control) [6]: 70; Plant response rating, Ryegrass, Italian [13]: 40; Kochia plant response rating (Kochia (Kochia scoparia) [14]): 40; Plant response rating, Kochia (Kochia (Kochia scoparia) [14]): 50; Corn plant response rating (corn (Zea mays)): 60; Plant response rating, Corn (corn (Zea mays)): 70; Ragweed plant response rating [15]: 20; Plant response rating, Ragweed [15]: 60; Foxtail, Giant plant response rating [16]: 80; Plant response rating, Foxtail, Giant [16]: 90; Galium plant response rating [17]: 60; Plant response rating, Galium [17]: 60; Barnyardgrass plant response rating [18]: 80; Plant response rating, Barnyardgrass [18]: 90; Pigweed plant response rating [19]: 50; Plant response rating, Pigweed [19]: 60
